Assay [1] addresses T1, BoNT/A LC (Clostridium botulinum, UniProt P0DPI0). Briefly: biochemical. In kind it is binding, C. botulinum.
The target in assay [2] is T1, BoNT/A LC. Briefly: biochemical. The following applies: read-out: % inhibition of the LCA endopeptidase activity. Further details: species or system C. botulinum.
The target of assay [3] is T1, BoNT/A LC. Briefly: biochemical. In kind it is biochemical, C. botulinum.
Assay [4] deals with T1, BoNT/A LC. Briefly: biochemical. Format: binding, C. botulinum. This is another data set of the same source.

The record followed here is patent US20220226282A1 (priority 2021, published 2022).

Broadly, the Kd is the equilibrium constant for the complex coming apart. A word on the inhibition: it is the relative decrease from the control value, in per cent. As a reminder, the Ki is a dissociation constant, usually derived from enzyme kinetics or from competition with a known ligand. Lower therefore signals a stronger hold on the target.

Several values for one entry are separate records, joined by “and”; a condition that tells them apart may be missing. Equal values may be shown once. Read-outs that look alike come from different tables or passages of the source.

T1 sequence (P0DPI0 2-448 limits assumed): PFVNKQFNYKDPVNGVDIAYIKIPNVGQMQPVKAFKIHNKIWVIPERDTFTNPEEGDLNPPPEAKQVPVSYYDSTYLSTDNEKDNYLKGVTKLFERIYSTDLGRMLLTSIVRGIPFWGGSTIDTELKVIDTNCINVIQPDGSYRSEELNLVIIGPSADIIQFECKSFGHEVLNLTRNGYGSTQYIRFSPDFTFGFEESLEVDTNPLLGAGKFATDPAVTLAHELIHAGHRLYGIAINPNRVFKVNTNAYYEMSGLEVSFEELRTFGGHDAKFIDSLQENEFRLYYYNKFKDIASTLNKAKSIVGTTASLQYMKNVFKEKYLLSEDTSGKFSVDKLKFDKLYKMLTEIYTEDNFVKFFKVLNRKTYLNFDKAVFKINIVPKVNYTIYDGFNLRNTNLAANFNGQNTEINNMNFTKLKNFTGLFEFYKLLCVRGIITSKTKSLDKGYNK

As to `O=c1ccc2cc3c(-c4ccc([N+](=O)[O-])cc4)coc3cc2o1` [Compound 1, 3-(4-nitrophenyl)-7H-furo[3,2-g]chromen-7-one], at BoNT/A LC [1], the “corrected intensity of Trp fluorescence signal at λmax of BoNT/A LC (signal reduced to)” value was 88% and 84% and 73% and 59%; the “n (number of binding sites)” value is 0.90; the ΔH is -70.8 kJ/mol; the ΔS is recorded as −0.15 kJ · mol^−1 K^−1. Moreover, the dissociation constant (Kd) at BoNT/A LC [1] (Ka (binding constant)) is 38 µM and 115 µM. In addition, the inhibition at 81 µM on BoNT/A LC [2] is ~100%. Besides, at BoNT/A LC [3], the Vmax is 2.13 ± 0.5 RFU/s and 2.09 ± 0.2 RFU/s and 1.56 ± 1.1 RFU/s; the type of inhibition entry was “mixed (non-competitive) type of inhibition”. The affinity at BoNT/A LC [3] (Ki) corresponds to a Ki of 5.8 ± 0.7 µM. Also, the affinity on BoNT/A LC [3] (Ki′) corresponds to a Ki of 11.5 ± 2.9 µM. The “antidote activity against paralytic actions of BoNT” value in the assay on BoNT is listed as “efficient antidote with the ability to mitigate the paralytic actions of BoNT”. At BoNT/A LC [4], the “Ka (association constant)” value stood at 760900 M⁻¹; the Kd was determined as 1.31 µM; the “N (number of binding sites, binding stoichiometry)” value was 2.8 and 2.760; the “ΔH (change in enthalpy)” value is -10.00 kJ/mol. The “ΔS (change in entropy)” value at BoNT/A LC [4] is on record as 79.05 J/mol · K.
